# Reference: patent US10865192B2, “Nicotine salts, co-crystals, and salt co-crystal complexes” (priority 2014, dated 2020)
# Like-named read-outs stand apart in the source and are kept apart here.
# Tests used:
# [1] = Static stability at elevated humidity (appearance and XRPD after storage); conditions: for Result (stability of screening orotic acid salts): Table 3, XRPD dry and after 1 week at 40° C./75% relative humidity (FIG. 14); for Result (stability of screening fumaric acid salts): Table 8, 40° C./75% RH, 1 day; for Static stability 25° C./96% RH: storage at 25° C./96% RH; for Static stability 25° C./96% RH / Static stability 40° C./75% RH: up to 1 week, appearance and XRPD; for Static stability 40° C./75% RH: storage at 40° C./75% RH
# [2] = for Behaviour after deliquescence when humidity is reduced / On desorption, moisture retained down to / water lost by: GVS desorption; for Total weight change 0-90% RH / Hygroscopicity / behaviour in GVS experiment / Relative humidity at which sample deliquesced in GVS (stable until) / On desorption, moisture retained down to / water lost by: 25° C.; for XRPD of residue after GVS: residue recovered after GVS isotherm; for Relative humidity at which sample deliquesced in GVS (stable until): GVS adsorption
# Method: Sorption isotherms were obtained using a SMS DVS Intrinsic moisture sorption analyzer, controlled by DVS Intrinsic Control software v1.0.1.2 (or v 1.0.1.3). The sample temperature was maintained at 25° C. by the instrument controls. The humidity was controlled by mixing streams of dry and wet nitrogen, with a total flow rate of 200 ml/min The relative humidity was measured by a calibrated Rotronic probe (dynamic range of 1.0-100% RH), located near the sample. The weight change, (mass relaxation) of the sample as a function of % RH was constantly monitored by the microbalance (accuracy±0.005 mg).
# Typically 5-20 mg of sample was placed in a tared mesh stainless steel basket under ambient conditions. The sample was loaded and unloaded at 40% RH and 25° C. (typical room conditions). A moisture sorption isotherm was performed as outlined below (2 scans giving 1 complete cycle). The standard isotherm was performed at 25° C. at 10% RH intervals over a 0-90% RH range. Data analysis was carried out using Microsoft Excel using DVS Analysis Suite v6.2 (or 6.1 or 6.0).
# The sample is recovered after completion of the isotherm and re-analyzed by XRPD.
# [3] = exposed to 650° C.
compound,measurement,setting,value
CN1CCCC1c1cccnc1.O=C(O)c1cc(=O)[nH]c(=O)[nH]1.O=C(O)c1cc(=O)[nH]c(=O)[nH]1 (centres unmarked) [Formation in ethanol],Result (stability of screening orotic acid salts),[1],Stable
CN1CCCC1c1cccnc1.O=C(O)C=CC(=O)O (centres unmarked) [Formation in neat nicotine],Result (stability of screening fumaric acid salts),[1],Deliquesced
CN1CCCC1c1cccnc1.O=C(O)c1cc(=O)[nH]c(=O)[nH]1 (centres unmarked) [Formation in water],Result (stability of screening orotic acid salts),[1],Stable
"CN1CCCC1c1cccnc1.O=C(O)/C=C/C(=O)O (centres unmarked) [Fumarate salt (prepared in THF), nicotine fumarate]",Behaviour after deliquescence when humidity is reduced,[2]; fumarate,remains a liquid
same,Behaviour after deliquescence when humidity is reduced,"[2]; listed as Fumarate Pattern 1, fumarate",does not re-crystallize
same,Weight gain from 0-90% RH in the GVS isotherm,"[2]; GVS isotherm, 0-90% RH",82%
same,Total weight change 0-90% RH,"[2]; GVS isotherm, 0-90% RH",Total weight change 0-90% RH = 82 wt. %
same,Hygroscopicity / behaviour in GVS experiment,"[2]; 0-90% RH, fumarate","wt. %, sample deliquesces and"
same,Hygroscopicity / behaviour in GVS experiment,"[2]; 0-90% RH, listed as Fumarate Pattern 1, fumarate",hygroscopic
same,Nicotine liberated on decomposition (peak areas),[3],97 % peak areas
same,Humidity at which the form deliquesces (elevated humidities),[1],> 75 % RH
CN1CCCC1c1cccnc1.O=C(O)c1cc(=O)[nH]c(=O)[nH]1 (centres unmarked) [Grinding],Result (stability of screening fumaric acid salts),[1],Deliquesced
(S)-nicotine bis-orotate [Salt A],Total weight change 0-90% RH,"[2]; GVS isotherm, 0-90% RH","RH = 0.8 wt. %, steady change in"
same,Hygroscopicity / behaviour in GVS experiment,[2]; 0-90% RH,only slightly hygroscopic
same,XRPD of residue after GVS,[2],XRPD of residue showed no
same,Nicotine liberated on decomposition (peak areas),[3],97 % peak areas
same,Thermal stability,,thermally stable
same,Static stability 25° C./96% RH,[1],"Pattern 1, runny material"
same,Static stability 25° C./96% RH,[1]; listed as Orotate Pattern 1,runny material
same,Static stability 25° C./96% RH,[1]; listed as bis-orotate salt-co-crystal,runny material
same,Static stability 40° C./75% RH,[1],No change
(S)-nicotine mono-orotate hemi-hydrate [Salt B],Relative humidity at which sample deliquesced in GVS (stable until),[2],80% RH then deliquesced On
same,Relative humidity at which sample deliquesced in GVS (stable until),[2]; listed as Orotate Pattern 2,80 % RH
same,Behaviour after deliquescence when humidity is reduced,[2],re-crystallized
same,"On desorption, moisture retained down to / water lost by",[2],down to 60% RH XRPD of residue
same,"On desorption, moisture retained down to / water lost by",[2]; listed as Orotate Pattern 2,60 % RH
same,Total weight change 0-90% RH,"[2]; GVS isotherm, 0-90% RH","RH = ~60 wt. %, stable until"
same,XRPD of residue after GVS,[2],Pattern 2 with some Orotate Pattern 1
same,XRPD of residue after GVS,[2]; listed as Orotate Pattern 2,contained some Pattern 1 material
same,Nicotine liberated on decomposition (peak areas),[3],97 % peak areas
same,Stability on exposure to high / elevated humidity,"[1]; high humidity, general statement",not stable to exposure to high humidity
same,Static stability 25° C./96% RH,[1],"Sticky after 24 hours, deliquesced"
same,Static stability 25° C./96% RH,[1]; listed as Orotate Pattern 2,deliquesced
same,Static stability 40° C./75% RH,[1],"Pattern 2, sticky material"
same,Static stability 40° C./75% RH,[1]; listed as Orotate Pattern 2,sticky material
